The results in this text go back to US6048882A, “Prophylactic and therapeutic agent for hepatic diseases” (Nisshin Flour Milling Co., Ltd., priority 1995, dated 2000).

Assay [1] concerns experimental hepatopathy models prepared by administering carbon tetrachloride. Put plainly: Inhibitory action on hepatopathy in hepatopathy models by carbon tetrachloride (lipid emulsion; serum GPT and GOT). It counts as in vivo, ddY strain male mice. The note with it: Mus musculus, iv, 20 h, i.v., one hour before carbon tetrachloride; for inhibition in vivo at 0.001 mg/kg: dose 1 μg/kg; for inhibition in vivo at 0.01 mg/kg: dose 10 μg/kg; for inhibition in vivo at 0.0001 mg/kg: dose 0.1 μg/kg. How it is done:
Carbon tetrachloride was diluted with olive oil to a concentration of 0.5% when administered. The present isoprenylamine derivatives were formulated into the lipid emulsions according to the method described in Pharmaceutical Example 8 and intravenously administered at a dose of 0.1-10 μg/kg one hour before the administration of carbon tetrachloride. 20 hours after the administration of carbon tetrachloride, blood samples were collected from animals under ether anesthesia and centrifuged. Then, serum GPT and GOT were determined and the respective inhibition rates were calculated on the bases of the serum GPT and GOT values obtained when the present isoprenylamine derivative was not administered being defined as 100, respectively.

Assay [2] concerns experimental hepatopathy models prepared by D-galactosamine administration. Briefly: Inhibitory action on hepatopathy in hepatopathy models by D-galactosamine (serum GPT and GOT). The assay is classed as in vivo, Wistar strain male mice. Particulars: iv, 24 h, 2 hours after D-galactosamine; for inhibition in vivo at 0.01 mg/kg / inhibition in vivo at 0.03 mg/kg: lipid emulsion, i.v.; for inhibition in vivo at 0.01 mg/kg: dose 10 μg/kg; for inhibition in vivo at 0.03 mg/kg: dose 30 μg/kg; for inhibition in vivo at 3 mg/kg: dissolved in distilled water, dose 3000 μg/kg. The method, then:
In these tests, GPT (glutamic-pyruvic transaminase) and GOT (glutamic-oxaloacetic transaminase) were determined using kits for the determination of GPT and GOT upon the method by U. Lippi et al., Iatrozyme TA-Lq (available from Iatron Laboratories Inc.), wherein the NADH formed when enzymes act upon substrates can reduce nitrotetrazolium blue (NTB) via 1-methoxy-5-methylphenazinium methylsulfate (1-methoxy PMS) to form formazan, which is then subjected to colorimetric analysis at a wavelength of 560 nm.
Inhibitory action of lipid emulsions containing the present isoprenylamine derivatives was evaluated by inhibition rates of GPT and GOT in experimental hepatopathy models prepared by D-galactosamine administration.
The experimental hepatopathy model was prepared by intraperitoneal administration of D-galactosamine at 400 mg/kg to Wistar strain male […] weighing about 170 g. The present isoprenylamine derivative was formulated to a lipid emulsion according to the method described in Pharmaceutical Example 8, and was intravenously administered at a dose of 10-30 μg/kg 2 hours after the administration of D-galactosamine.
24 hours after the D-galactosamine administration, blood samples were collected form animals under ether anesthesia and centrifuged. Then, serum GPT and GOT were determined and the respective inhibition rates were calculated on the bases of the serum GPT and GOT values obtained when the present isoprenylamine derivatives were not administered being defined as 100, respectively.
For comparison, glycyrrhizin ammonium (Tokyo Kasei Co.) dissolved in distilled water was administered in a similar manner to that for the isoprenylamine derivatives, blood sampling and determination were conducted and the serum GPT and GOT inhibition rates were calculated.

Structures can show the parent of a compound that is named as a salt. Where two headings read alike, the source gives them in different places.

Consider `CC(C)=CCC/C(C)=C/CC/C(C)=C/CC/C(C)=C/CNCc1ccc2c(c1)OCO2` [Compound 1, N-geranylgeranylpiperonylamine hydrochloride], for which the inhibition in vivo at 0.001 mg/kg is 13% in assay [1] (read-out: GOT inhibition) and 21% in assay [1] (read-out: GPT inhibition).

Turning to `CC(C)=CCC/C(C)=C/CC/C(C)=C/CC/C(C)=C/CC/C(C)=C/CNCc1ccc2c(c1)OCO2` [Compound 2, N-farnesylgeranylpiperonylamine hydrochloride], the inhibition in vivo at 0.01 mg/kg in assay [2] (read-out: GOT inhibition) and in assay [2] (read-out: GPT inhibition) was 23% throughout.

For `CC(C)=CCC/C(C)=C/CC/C(C)=C/CC/C(C)=C/CC/C(C)=C/CC/C(C)=C/CNCc1ccc2c(c1)OCO2` [Compound 3, N-farnesylfarnesylpiperonylamine hydrochloride], the inhibition in vivo at 0.01 mg/kg was 21% in assay [2] (read-out: GOT inhibition) and 20% in assay [2] (read-out: GPT inhibition).

`CC(C)=CCC/C(C)=C/CC/C(C)=C/CC/C(C)=C/CC/C(C)=C/CC/C(C)=C/CC/C(C)=C/CC/C(C)=C/CNCc1ccc2c(c1)OCO2` [Compound 5, N-farnesylfarnesylgeranylpiperonylamine hydrochloride]: the inhibition in vivo at 0.01 mg/kg in assay [2] (read-out: GOT inhibition) was 29%; in assay [2] (read-out: GPT inhibition), 27%.

In the case of `CC(C)=CCC/C(C)=C/CC/C(C)=C/CC/C(C)=C/CC/C(C)=C/CC/C(C)=C/CC/C(C)=C/CC/C(C)=C/CC/C(C)=C/CNCc1ccccc1` [Compound 7, N-solanesylbenzylamine hydrochloride], the inhibition in vivo at 0.001 mg/kg in assay [1] (read-out: GOT inhibition) and in assay [1] (read-out: GPT inhibition) was 42% each time.

In the case of `CC(C)=CCC/C(C)=C/CC/C(C)=C/CC/C(C)=C/CC/C(C)=C/CC/C(C)=C/CC/C(C)=C/CC/C(C)=C/CC/C(C)=C/CNCc1ccc(O)cc1` [Compound 8, N-solanesyl-4-hydroxybenzylamine hydrochloride], the inhibition in vivo at 0.01 mg/kg in assay [1] (read-out: GOT inhibition) was 25%; in assay [1] (read-out: GPT inhibition) it was 22%.

As to `CC(C)=CCC/C(C)=C/CC/C(C)=C/CC/C(C)=C/CC/C(C)=C/CC/C(C)=C/CC/C(C)=C/CC/C(C)=C/CC/C(C)=C/CNCc1ccc(Cl)cc1` [Compound 9, N-solanesyl-4-chlorobenzylamine hydrochloride], the inhibition in vivo at 0.03 mg/kg stood at 47% in assay [2] (read-out: GOT inhibition) and 53% in assay [2] (read-out: GPT inhibition).

`CC(C)=CCC/C(C)=C/CC/C(C)=C/CC/C(C)=C/CC/C(C)=C/CC/C(C)=C/CC/C(C)=C/CC/C(C)=C/CC/C(C)=C/CNCc1ccc(C)cc1` [Compound 10, N-solanesyl-4-methylbenzylamine hydrochloride]: the inhibition in vivo at 0.03 mg/kg in assay [2] (read-out: GOT inhibition) stood at 54%; in assay [2] (read-out: GPT inhibition), 63%.

As for `CC(C)=CCC/C(C)=C/CC/C(C)=C/CC/C(C)=C/CC/C(C)=C/CC/C(C)=C/CC/C(C)=C/CC/C(C)=C/CC/C(C)=C/CNCc1ccc(O)c(O)c1` [Compound 11, N-solanesyl-3,4-dihydroxybenzylamine hydrochloride], the inhibition in vivo at 0.03 mg/kg worked out at 41% in assay [2] (read-out: GOT inhibition) and 55% in assay [2] (read-out: GPT inhibition).

Take `COc1cc(CNC/C=C(\C)CC/C=C(\C)CC/C=C(\C)CC/C=C(\C)CC/C=C(\C)CC/C=C(\C)CC/C=C(\C)CC/C=C(\C)CCC=C(C)C)ccc1O` [Compound 12, N-solanesyl-4-hydroxy-3-methoxybenzylamine hydrochloride]: the inhibition in vivo at 0.03 mg/kg in assay [2] (read-out: GOT inhibition) stood at 42%; in assay [2] (read-out: GPT inhibition), 53%.

Regarding `COc1ccc(CNC/C=C(\C)CC/C=C(\C)CC/C=C(\C)CC/C=C(\C)CC/C=C(\C)CC/C=C(\C)CC/C=C(\C)CC/C=C(\C)CCC=C(C)C)cc1OC` [Compound 13, N-solanesylveratrylamine hydrochloride], the inhibition in vivo at 0.0001 mg/kg was determined as 14% in assay [1] (read-out: GOT inhibition) and 21% in assay [1] (read-out: GPT inhibition).

In the case of `COc1c(C)c(CNC/C=C(\C)CC/C=C(\C)CC/C=C(\C)CC/C=C(\C)CC/C=C(\C)CC/C=C(\C)CC/C=C(\C)CC/C=C(\C)CCC=C(C)C)c(OC)c(OC)c1OC` [Compound 14, N-solanesyl-2,3,4,5-tetramethoxy-6-methylbenzylamine hydrochloride], the inhibition in vivo at 0.03 mg/kg in assay [2] (read-out: GOT inhibition) came out at 55%; in assay [2] (read-out: GPT inhibition) it was 64%.

For the compound `CC(C)=CCC/C(C)=C/CC/C(C)=C/CC/C(C)=C/CC/C(C)=C/CC/C(C)=C/CC/C(C)=C/CC/C(C)=C/CC/C(C)=C/CNCc1ccc2c(c1)OCO2` [Compound 15, N-solanesylpiperonylamine malate], the figures for the inhibition in vivo at 0.01 mg/kg in assay [1] (read-out: GOT inhibition) and in assay [1] (read-out: GPT inhibition) were 18% and 24%, respectively.

Take `CC(C)=CCC/C(C)=C/CC/C(C)=C/CC/C(C)=C/CC/C(C)=C/CC/C(C)=C/CC/C(C)=C/CC/C(C)=C/CC/C(C)=C/CNc1ccc2c(c1)OCO2` [Compound 16, N-solanesyl-(3,4-methylenedioxy)aniline hydrochloride]: the inhibition in vivo at 0.03 mg/kg in assay [2] (read-out: GOT inhibition) worked out at 48%; in assay [2] (read-out: GPT inhibition) it was 43%.

In the case of `CC(C)=CCC/C(C)=C/CC/C(C)=C/CC/C(C)=C/CC/C(C)=C/CC/C(C)=C/CC/C(C)=C/CC/C(C)=C/CC/C(C)=C/CNCCc1ccc2c(c1)OCO2` [Compound 17, N-Solanesyl-2-(3,4-methylenedioxyphenyl)ethylamine Hydrochloride], the inhibition in vivo at 0.03 mg/kg in assay [2] (read-out: GOT inhibition) stood at 24%; in assay [2] (read-out: GPT inhibition), 23%.

On to `CC(C)=CCC/C(C)=C/CC/C(C)=C/CC/C(C)=C/CC/C(C)=C/CC/C(C)=C/CC/C(C)=C/CC/C(C)=C/CC/C(C)=C/CNCCCc1ccc2c(c1)OCO2` [Compound 18, N-solanesyl-3-(3,4-methylenedioxyphenyl)propylamine hydrochloride], for which the figures for the inhibition in vivo at 0.03 mg/kg in assay [2] (read-out: GOT inhibition) and in assay [2] (read-out: GPT inhibition) were 22% and 20%, respectively.

For the compound `CC(C)=CCC/C(C)=C/CC/C(C)=C/CC/C(C)=C/CC/C(C)=C/CC/C(C)=C/CC/C(C)=C/CC/C(C)=C/CC/C(C)=C/CN(C)Cc1ccc2c(c1)OCO2` [Compound 19, N-methyl-N-solanesylpiperonylamine], the values for the inhibition in vivo at 0.001 mg/kg in assay [1] (read-out: GOT inhibition) and in assay [1] (read-out: GPT inhibition) were 43% and 31%, respectively.

Consider `CC(C)=CCC/C(C)=C/CC/C(C)=C/CC/C(C)=C/CC/C(C)=C/CC/C(C)=C/CC/C(C)=C/CC/C(C)=C/CC/C(C)=C/CNCc1ccco1` [Compound 24, N-solanesyl-2-furfurylamine hydrochloride], for which the inhibition in vivo at 0.03 mg/kg in assay [2] (read-out: GOT inhibition) worked out at 30%; in assay [2] (read-out: GPT inhibition), 25%.

With `CC(C)=CCC/C(C)=C/CC/C(C)=C/CC/C(C)=C/CC/C(C)=C/CC/C(C)=C/CC/C(C)=C/CC/C(C)=C/CC/C(C)=C/CNCc1cccs1` [Compound 25, N-solanesyl-2-thienylamine hydrochloride], the inhibition in vivo at 0.03 mg/kg in assay [2] (read-out: GOT inhibition) is 32%; in assay [2] (read-out: GPT inhibition) it was 30%.

Turning to `CC(C)=CCC/C(C)=C/CC/C(C)=C/CC/C(C)=C/CC/C(C)=C/CC/C(C)=C/CC/C(C)=C/CC/C(C)=C/CC/C(C)=C/CNCc1cccnc1` [Compound 26, N-solanesyl-3-pyridylmethylamine dihydrochloride], the inhibition in vivo at 0.03 mg/kg in assay [2] (read-out: GOT inhibition) was found to be 40%; in assay [2] (read-out: GPT inhibition), 35%.

In the case of `CC1(C)[C@@H](O[C@H]2O[C@H](C(=O)O)[C@@H](O)[C@H](O)[C@H]2O[C@@H]2O[C@H](C(=O)O)[C@@H](O)[C@H](O)[C@H]2O)CC[C@]2(C)[C@H]3C(=O)C=C4[C@@H]5C[C@@](C)(C(=O)O)CC[C@]5(C)CC[C@@]4(C)[C@]3(C)CC[C@@H]12` [Glycyrrhizin ammonium, glycyrrhizin ammonium, reference compound], the inhibition in vivo at 3 mg/kg worked out at 22% in assay [2] (read-out: GOT inhibition) and 25% in assay [2] (read-out: GPT inhibition).
